Laboratory results published in PubChem BioAssay AID1259407 (Chemical Carcinogenesis Research Information System (CCRIS), 2018).
The source made the active and inactive calls. The rule behind the calls is not given here.

Tested on: CCRIS mutagenicity, Ames/micronucleus/aberration tests
Assay: CCRIS mutagenicity studies

In the case of `CN(CCCC(=O)c1cccnc1)N=O`, the mutagenic call (Test System: AMES SALMONELLA TYPHIMURIUM, Strain/Indicator: TA100, Metabolic Activation: NONE, Method: PREINCUBATION) is reported as “inactive; negative”, the mutagenic call (Test System: AMES SALMONELLA TYPHIMURIUM, Strain/Indicator: TA100, Metabolic Activation: RABBIT, LIVER, S-9, Method: PREINCUBATION) is reported as “active; positive” and the mutagenic call (Test System: AMES SALMONELLA TYPHIMURIUM, Strain/Indicator: TA100, Metabolic Activation: RABBIT, LUNG, CLARA CELLS, Method: PREINCUBATION) is reported as “inactive; negative”. For the same compound, the mutagenic call (Test System: AMES SALMONELLA TYPHIMURIUM, Strain/Indicator: TA100, Metabolic Activation: RABBIT, LUNG, MACROPHAGES, Method: PREINCUBATION) was “inactive; negative”, the mutagenic call (Test System: AMES SALMONELLA TYPHIMURIUM, Strain/Indicator: TA100, Metabolic Activation: RABBIT, LUNG, TYPE II CELLS, Method: PREINCUBATION) was “inactive; negative” and the mutagenic call (Test System: AMES SALMONELLA TYPHIMURIUM, Strain/Indicator: TA100, Metabolic Activation: RAT LIVER S-9, AROCLOR 1254, Method: PREINCUBATION) was “inactive; negative”. For the same compound, the mutagenic call (Test System: AMES SALMONELLA TYPHIMURIUM, Strain/Indicator: TA100, Metabolic Activation: RAT, LIVER, S-9, AROCLOR 1254, Method: STANDARD PLATE) was “active; positive”, the mutagenic call (Test System: AMES SALMONELLA TYPHIMURIUM, Strain/Indicator: TA1530, Metabolic Activation: RABBIT, LIVER, S-9, Method: PREINCUBATION) was “active; positive” and the mutagenic call (Test System: AMES SALMONELLA TYPHIMURIUM, Strain/Indicator: TA1530, Metabolic Activation: RABBIT, LUNG, CLARA CELLS, Method: PREINCUBATION) was “inactive; negative”. The mutagenic call (Test System: AMES SALMONELLA TYPHIMURIUM, Strain/Indicator: TA1530, Metabolic Activation: RABBIT, LUNG, MACROPHAGES, Method: PREINCUBATION) was “inactive; negative”, the mutagenic call (Test System: AMES SALMONELLA TYPHIMURIUM, Strain/Indicator: TA1530, Metabolic Activation: RABBIT, LUNG, TYPE II CELLS, Method: PREINCUBATION) was “inactive; negative” and the mutagenic call (Test System: AMES SALMONELLA TYPHIMURIUM, Strain/Indicator: TA1535, Metabolic Activation: HAMSTER, LIVER, MICROSOMES, 3-METHYLCHOLANTHRENE, Method: PREINCUBATION) was “active; positive”. For the same compound, the mutagenic call (Test System: AMES SALMONELLA TYPHIMURIUM, Strain/Indicator: TA1535, Metabolic Activation: HAMSTER, LIVER, MICROSOMES, AROCLOR 1254, Method: PREINCUBATION) was “active; positive”, the mutagenic call (Test System: AMES SALMONELLA TYPHIMURIUM, Strain/Indicator: TA1535, Metabolic Activation: HAMSTER, LIVER, MICROSOMES, DEXAMETHASONE, Method: PREINCUBATION) was “active; positive” and the mutagenic call (Test System: AMES SALMONELLA TYPHIMURIUM, Strain/Indicator: TA1535, Metabolic Activation: HAMSTER, LIVER, MICROSOMES, ETHANOL, Method: PREINCUBATION) was “active; positive”. For the same compound, the mutagenic call (Test System: AMES SALMONELLA TYPHIMURIUM, Strain/Indicator: TA1535, Metabolic Activation: HAMSTER, LIVER, MICROSOMES, ISOSAFROL, Method: PREINCUBATION) was “active; positive”, the mutagenic call (Test System: AMES SALMONELLA TYPHIMURIUM, Strain/Indicator: TA1535, Metabolic Activation: HAMSTER, LIVER, MICROSOMES, PHENOBARBITAL, Method: PREINCUBATION) was “active; positive” and the mutagenic call (Test System: AMES SALMONELLA TYPHIMURIUM, Strain/Indicator: TA1535, Metabolic Activation: HAMSTER, LIVER, S-9, 3-METHYLCHOLANTHRENE, Method: PREINCUBATION) was “active; positive”. For the same compound, the mutagenic call (Test System: AMES SALMONELLA TYPHIMURIUM, Strain/Indicator: TA1535, Metabolic Activation: HAMSTER, LIVER, S-9, AROCLOR 1254, Method: PREINCUBATION) was “active; positive”, the mutagenic call (Test System: AMES SALMONELLA TYPHIMURIUM, Strain/Indicator: TA1535, Metabolic Activation: HAMSTER, LIVER, S-9, DEXAMETHASONE, Method: PREINCUBATION) was “active; positive” and the mutagenic call (Test System: AMES SALMONELLA TYPHIMURIUM, Strain/Indicator: TA1535, Metabolic Activation: HAMSTER, LIVER, S-9, ETHANOL, Method: PREINCUBATION) was “active; positive”. For the same compound, the mutagenic call (Test System: AMES SALMONELLA TYPHIMURIUM, Strain/Indicator: TA1535, Metabolic Activation: HAMSTER, LIVER, S-9, ISOSAFROL, Method: PREINCUBATION) was “active; positive”, the mutagenic call (Test System: AMES SALMONELLA TYPHIMURIUM, Strain/Indicator: TA1535, Metabolic Activation: HAMSTER, LIVER, S-9, PHENOBARBITAL, Method: PREINCUBATION) was “active; positive” and the mutagenic call (Test System: AMES SALMONELLA TYPHIMURIUM, Strain/Indicator: TA1535, Metabolic Activation: NONE, Method: STANDARD PLATE) was “inactive; negative”. For the same compound, the mutagenic call (Test System: AMES SALMONELLA TYPHIMURIUM, Strain/Indicator: TA1535, Metabolic Activation: RAT, LIVER, HEPATOCYTES, AROCLOR 1254, Method: STANDARD PLATE) was “active; positive”, the mutagenic call (Test System: AMES SALMONELLA TYPHIMURIUM, Strain/Indicator: TA1535, Metabolic Activation: RAT, LIVER, HEPATOCYTES, Method: STANDARD PLATE) was “active; positive” and the mutagenic call (Test System: AMES SALMONELLA TYPHIMURIUM, Strain/Indicator: TA1535, Metabolic Activation: RAT, LIVER, S-9, AROCLOR 1254, Method: STANDARD PLATE) was “active; positive”. The mutagenic call (Test System: AMES SALMONELLA TYPHIMURIUM, Strain/Indicator: TA1535, Metabolic Activation: RAT, LIVER, S-9, Method: STANDARD PLATE) was “inactive; negative”, the mutagenic call (Test System: AMES SALMONELLA TYPHIMURIUM, Strain/Indicator: TA1535, Metabolic Activation: RAT, TRACHEAL EPITHELIAL CELLS, AROCLOR 1254, Method: STANDARD PLATE) was “inactive; negative” and the mutagenic call (Test System: AMES SALMONELLA TYPHIMURIUM, Strain/Indicator: TA1535, Metabolic Activation: RAT, TRACHEAL EPITHELIAL CELLS, Method: STANDARD PLATE) was “inactive; negative”. For the same compound, the mutagenic call (Test System: AMES SALMONELLA TYPHIMURIUM, Strain/Indicator: TA7004, Metabolic Activation: HAMSTER LIVER S-9, AROCLOR 1254, Method: PREINCUBATION) was “active; positive”, the mutagenic call (Test System: AMES SALMONELLA TYPHIMURIUM, Strain/Indicator: TA7004, Metabolic Activation: NONE, Method: PREINCUBATION) was “inactive; negative” and the mutagenic call (Test System: AMES SALMONELLA TYPHIMURIUM, Strain/Indicator: TA7004, Metabolic Activation: RAT LIVER S-9, AROCLOR 1254, Method: PREINCUBATION) was “active; positive”. The mutagenic call (Test System: AMES SALMONELLA TYPHIMURIUM, Strain/Indicator: YG7108-2A6-OR, Metabolic Activation: NONE, Method: PREINCUBATION) was “active; positive”, the mutagenic call (Test System: AMES SALMONELLA TYPHIMURIUM, Strain/Indicator: YG7108-2A6, Metabolic Activation: NONE, Method: PREINCUBATION) was “active; positive” and the mutagenic call (Test System: AMES SALMONELLA TYPHIMURIUM, Strain/Indicator: YG7108-PCW, Metabolic Activation: NONE, Method: PREINCUBATION) was “inactive; negative”. The mutagenic call (Test System: AMES SALMONELLA TYPHIMURIUM, Strain/Indicator: YG7108, Metabolic Activation: RAT LIVER S-9, PHENOBARBITAL AND 5,6-BENZOFLAVONE, Method: PREINCUBATION) was “active; positive”, the mutagenic call (Test System: CHINESE HAMSTER V-79, Strain/Indicator: V-79 (HPRT)/6-THIOGUANINE, Metabolic Activation: RAT, HEPATOCYTES) was “active; positive” and the mutagenic call (Test System: CHINESE HAMSTER V-79, Strain/Indicator: V-79 (HPRT)/6-THIOGUANINE, Metabolic Activation: RAT, HEPATOMA, H4IIE CELLS) was “inactive; negative”. The mutagenic call (Test System: CHINESE HAMSTER V-79, Strain/Indicator: V-79 (HPRT)/6-THIOGUANINE, Metabolic Activation: RAT, LIVER, S-9, AROCLOR 1254) was “active; positive”, the mutagenic call (Test System: E. COLI, Strain/Indicator: NR3835, Metabolic Activation: HOST-MEDIATED, Method: IN VIVO-IN VITRO) was “active; positive” and the mutagenic call (Test System: UDS RABBIT LUNG CLARA CELLS, Strain/Indicator: THY INCORP, Metabolic Activation: NONE, Method: LIQUID SCINTILLATION COUNTING) was “active; positive”. For the same compound, the mutagenic call (Test System: UDS RABBIT LUNG MACROPHAGES, Strain/Indicator: THY INCORP, Metabolic Activation: NONE, Method: LIQUID SCINTILLATION COUNTING) was “inactive; negative”, the mutagenic call (Test System: UDS RABBIT LUNG TYPE II CELLS, Strain/Indicator: THY INCORP, Metabolic Activation: NONE, Method: LIQUID SCINTILLATION COUNTING) was “active; positive” and the mutagenic call (Test System: UDS RODENT HEPATOCYTES, Strain/Indicator: THY INCORP (NON-S-PHASE), Method: AUTORADIOGRAPHY) was “active; positive”.
